What was measured:
Test in all cases: relative viability (nuclei count vs DMSO), 5 days (fraction); higher = more cells survive
[1] = compound: COc1cc(Nc2ncc3c(n2)-c2ccc(Cl)cc2C(c2c(F)cccc2OC)=NC3)ccc1C(=O)O [Alisertib] + CS(=O)(=O)CCNCc1ccc(-c2ccc3ncnc(Nc4ccc(OCc5cccc(F)c5)c(Cl)c4)c3c2)o1 [Lapatinib] (partner 2 µM)
Method in brief: (§1)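 Relative viability was taken as the ratio of nuclei in treated wells to nuclei in vehicle wells. Lung cancer cell lines in 1536-well plates received compounds by pin tool one day after seeding, either one drug alone or a fixed anchor-drug dose plus five library-drug doses (not always all listed) in √10 steps. Nuclei were counted on 4× images after 5 days of treatment, and values are medians of duplicate plates.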

[2] = compound: COc1cc(Nc2ncc3c(n2)-c2ccc(Cl)cc2C(c2c(F)cccc2OC)=NC3)ccc1C(=O)O [Alisertib] + C[C@]1(O)C[C@@H](c2nc(-c3ccc4ccc(-c5ccccc5)nc4c3)c3c(N)nccn32)C1 [Linsitinib] (partner 1 µM)
Method in brief: as §1

[3] = compound: COc1cc(Nc2ncc3c(n2)-c2ccc(Cl)cc2C(c2c(F)cccc2OC)=NC3)ccc1C(=O)O [Alisertib] + COc1cccc2cc(-c3nc([C@H]4CC[C@H](C(=O)O)CC4)n4ncnc(N)c34)[nH]c12 [OSI-027] (partner 0.5 µM)
Method in brief: as §1

[4] = compound: COc1cc(Nc2ncc3c(n2)-c2ccc(Cl)cc2C(c2c(F)cccc2OC)=NC3)ccc1C(=O)O [Alisertib] + CCNC(=O)c1noc(-c2cc(C(C)C)c(O)cc2O)c1-c1ccc(CN2CCOCC2)cc1 [Luminespib] (partner 0.01 µM)
Method in brief: as §1

Cell Line | relative viability ([1]; first compound 0.005 µM) | relative viability ([1]; first compound 0.01581 µM) | relative viability ([1]; first compound 0.05 µM) | relative viability ([1]; first compound 0.1581 µM) | relative viability ([1]; first compound 0.5 µM) | relative viability ([2]; first compound 0.005 µM) | relative viability ([2]; first compound 0.01581 µM) | relative viability ([2]; first compound 0.05 µM) | relative viability ([2]; first compound 0.1581 µM) | relative viability ([2]; first compound 0.5 µM) | relative viability ([3]; first compound 0.005 µM) | relative viability ([3]; first compound 0.01581 µM) | relative viability ([3]; first compound 0.05 µM) | relative viability ([3]; first compound 0.1581 µM) | relative viability ([3]; first compound 0.5 µM) | relative viability ([4]; first compound 0.005 µM) | relative viability ([4]; first compound 0.01581 µM) | relative viability ([4]; first compound 0.05 µM) | relative viability ([4]; first compound 0.1581 µM) | relative viability ([4]; first compound 0.5 µM)
HCC-44 | 0.991 | 0.922 | 0.906 | 0.242 | 0.151 | 0.73 | 0.683 | 0.42 | 0.328 | 0.113 | 0.465 | 0.313 | 0.368 | 0.166 | 0.186 | 0.91 | 0.667 | 0.355 | 0.18 | 0.176
PC-3 [JPC-3] | 0.453 | 0.441 | 0.441 | 0.374 | 0.329 | 0.967 | 0.908 | 0.864 | 0.559 | 0.447 | 0.784 | 0.764 | 0.703 | 0.407 | 0.306 | 0.705 | 0.661 | 0.455 | 0.376 | 0.359
HOP-62 | 0.838 | 0.803 | 0.883 | 0.223 | 0.146 | 0.551 | 0.853 | 0.305 | 0.203 | 0.155 | 0.683 | 0.727 | 0.537 | 0.243 | 0.176 | 0.845 | 0.808 | 0.288 | 0.259 | 0.153
NCI-H358 | 0.389 | 0.434 | 0.211 | 0.177 | 0.161 | 0.735 | 0.486 | 0.202 | 0.159 | 0.14 | 0.716 | 0.507 | 0.144 | 0.0797 | 0.0701 | 0.321 | 0.243 | 0.133 | 0.114 | 0.105
SK-MES-1 | 0.468 | 0.508 | 0.411 | 0.263 | 0.219 | 0.953 | 0.963 | 0.725 | 0.279 | 0.16 | 0.563 | 0.572 | 0.276 | 0.21 | 0.117 | 0.723 | 0.4 | 0.273 | 0.144 | 0.17
NCI-H1666 | 0.672 | 0.451 | 0.436 | 0.28 | 0.236 | 0.815 | 0.812 | 0.41 | 0.317 | 0.253 | 0.7 | 0.7 | 0.592 | 0.494 | 0.367 | 0.879 | 0.801 | 0.639 | 0.471 | 0.379
NCI-H1355 | 0.914 | 0.837 | 0.671 | 0.258 | 0.184 | 0.791 | 0.8 | 0.394 | 0.22 | 0.154 | 0.346 | 0.367 | 0.356 | 0.154 | 0.173 | 0.67 | 0.37 | 0.221 | 0.183 | 0.217
HCC-827 | 0.183 | 0.228 | 0.191 | 0.16 | 0.101 | 0.908 | 0.928 | 0.543 | 0.434 | 0.316 | 0.722 | 0.755 | 0.685 | 0.257 | 0.18 | 0.48 | 0.598 | 0.204 | 0.209 | 0.234
HARA | 0.616 | 0.631 | 0.848 | 0.129 | 0.0993 | 1.03 | 0.919 | 0.361 | 0.189 | 0.0844 | 0.409 | 0.423 | 0.369 | 0.113 | 0.0564 | 0.682 | 0.428 | 0.209 | 0.0919 | 0.0942
NCI-H322M | 0.564 | 0.616 | 0.548 | 0.296 | 0.315 | 0.895 | 0.883 | 0.435 | 0.459 | 0.356 | 0.568 | 0.517 | 0.466 | 0.326 | 0.351 | 0.84 | 0.671 | 0.475 | 0.37 | 0.452
NCI-H2347 | 0.815 | 0.911 | 0.877 | 0.738 | 0.531 | 0.967 | 0.954 | 0.812 | 0.729 | 0.478 | 0.373 | 0.346 | 0.373 | 0.377 | 0.282 | 0.275 | 0.287 | 0.429 | 0.317 | 0.422
NCI-H1975 | 0.78 | 0.808 | 0.457 | 0.234 | 0.174 | 0.917 | 0.861 | 0.484 | 0.331 | 0.188 | 0.582 | 0.715 | 0.431 | 0.192 | 0.143 | 0.199 | 0.23 | 0.213 | 0.177 | 0.168
NCI-H596 | – | 1 | 1.16 | 0.63 | 0.433 | – | 1.02 | 0.969 | 0.967 | 0.404 | 0.606 | 0.665 | 0.788 | 0.727 | 0.26 | 0.839 | 0.977 | 1.05 | 0.505 | 0.412
ABC-1 | 1.22 | 1.1 | 1.05 | 0.91 | 0.616 | 0.661 | 0.707 | 0.584 | 0.416 | 0.204 | 0.42 | 0.375 | 0.339 | 0.195 | 0.185 | – | – | 0.491 | 0.366 | 0.136
